{"source": "patent US11285170B2", "about": "“Fractionated antimicrobial compositions and use thereof” (priority 2017, dated 2022)", "key": {"[1]": {"tested_on": "Candida glabrata CG15, VT18", "test": "MIC against multiresistant C. glabrata", "format": "cell-based", "description": "(§1) In this example, the efficacy of Examples 1, 10 and 13 were tested against multi-drug resistant microorganisms.\n(§2) Bacterial strains tested: Pseudomonas aeruginosa AGR 18 and MR23 multiresistant. Fungal strain: Candida glabrata CG15, VT18 resistant to Amphotericin B and Voriconazole Microbiological efficacy was determined as the Minimal Inhibitory Concentration.\nThe bactericidal activities of Examples 1, 10 and 13 against multiresistant C. glabrata isolates are shown below in Table 18."}, "[2]": {"tested_on": "Pseudomonas aeruginosa AGR 18 and MR23 multiresistant", "test": "MIC against multi-drug resistant P. aeruginosa", "format": "cell-based", "description": "as §1, §2\nThe bactericidal activities of Examples 1, 10 and 13 against multiresistant P. aeruginosa isolates are shown below in Table 17."}, "[3]": {"tested_on": "Vancomycin resistant S. aureus (VRSA)", "test": "MIC by broth macrodilution against S. aureus isolates", "format": "cell-based", "details": "Staphylococcus aureus", "description": "In this example, the efficacy of the inventive preparations was tested against Vancomycin resistant S. aureus (VRSA)\nThe MICs were determined using a broth macrodilution method with cation-adjusted Mueller-Hinton broth II (Becton Dickinson) at standard inoculum (10^5 cfu/mL) following the CLSI recommendations. The cultures used in this study were bacterial clinical isolates from human infections."}, "[4]": {"tested_on": "MSSA strain ATCC 29213", "test": "MIC by broth macrodilution against S. aureus isolates, MSSA strain", "format": "cell-based", "details": "Staphylococcus aureus, read-out: MSSA strain MIC", "description": "The cultures used in this study were bacterial clinical isolates from human infections."}, "[5]": {"tested_on": "A. fumigatus", "test": "MIC by broth macrodilution, Example 22", "format": "cell-based, Aspergillus fumigatus", "details": "CLSI", "description": "(§3) The potency of Example Nos. 1, 5 and 10 were examined against bacterial isolates from patients with cystic fibrosis. The MICs values were determined by the broth macrodilution method according to the CLSI guideline. For the in vivo studies, 8-week-old C57BL/6 mice were intranasally infected with P. aeruginosa MR-6 (2×10^7 cfu/mouse)+A. fimigatus (6×10^6 cfu/mouse)."}, "[6]": {"tested_on": "P. aeruginosa", "test": "MIC by broth macrodilution, isolates from patients with cystic fibrosis, Example 22", "format": "cell-based", "details": "Pseudomonas aeruginosa, CLSI, read-out: MIC against P. aeruginosa", "description": "as §3"}, "[7]": {"tested_on": "A. fumigatus", "test": "Animal model of respiratory infection, mortality", "format": "in vivo, C57BL/6 mice", "details": "mice, intranasal infection; treatment 12 h after infection by intranasal inhalation at 32×MIC", "description": "(§4) In this example the efficacy of the preparations were tested against an animal model of mixed respiratory infection.\nas §3"}, "[8]": {"tested_on": "P. aeruginosa", "test": "Animal model of respiratory infection, mortality", "format": "in vivo, C57BL/6 mice", "details": "mice, intranasal infection; treatment 12 h after infection by intranasal inhalation at 32×MIC", "description": "as §4, §3"}, "[9]": {"tested_on": "P. aeruginosa + A. fumigatus", "test": "Animal model of mixed respiratory infection, mortality", "format": "in vivo, C57BL/6 mice", "details": "mice, intranasal infection; treatment 12 h after infection by intranasal inhalation at 32×MIC", "description": "as §4, §3"}, "[10]": {"tested_on": "Ehrlich solid tumor", "test": "Ehrlich solid tumor, combined effect with anticancer drugs", "format": "in vivo", "details": "combination study, 0.2 ml of 0.01% solution intraperitoneally", "description": "In this experiment, a model of continuous Ehrlich solid tumor was used to study combined effect of claimed product with anticancer drugs. The drugs were administered simultaneously with the tumor transplantation (0.2 ml of 0.01% solution) intraperitoneally. The control animals received water (used as solvent for the drugs tested)."}, "[11]": {"details": "VT-A-199, read-out: VRSA strain MIC"}, "[12]": {"details": "VT-V-18, read-out: VRSA strain MIC"}, "[13]": {"details": "VT-V-25, read-out: VRSA strain MIC"}}, "note": "Where two headings read alike, the source gives them in different places.", "data": [{"smiles": "C[C@@H]1[C@H](O)[C@@H](C)/C=C/C=C/C=C/C=C/C=C/C=C/C=C/[C@H](O[C@@H]2O[C@H](C)[C@@H](O)[C@H](N)[C@@H]2O)C[C@@H]2O[C@](O)(C[C@@H](O)C[C@@H](O)[C@H](O)CC[C@@H](O)C[C@@H](O)CC(=O)O[C@H]1C)C[C@H](O)[C@H]2C(=O)O", "note": "[AMB]", "values": [{"measurement": "Minimal inhibitory concentration", "setting": "[1]; C. glabrata CG1514053", "result": 4, "unit": "µg/mL"}, {"measurement": "Minimal inhibitory concentration", "setting": "[1]; C. glabrata VT18", "result": 8, "unit": "µg/mL"}]}, {"smiles": "NCC[C@H](O)C(=O)N[C@@H]1C[C@H](N)[C@@H](O[C@H]2O[C@H](CN)[C@@H](O)[C@H](O)[C@H]2O)[C@H](O)[C@H]1O[C@H]1O[C@H](CO)[C@@H](O)[C@H](N)[C@H]1O", "note": "[Amikacin]", "values": [{"measurement": "MIC", "setting": "[2]; P. aeruginosa strain AGR 18", "result": 128, "unit": "µg/mL"}, {"measurement": "MIC", "setting": "[2]; P. aeruginosa strain MR23", "result": 256, "unit": "µg/mL"}]}, {"smiles": "CC1(C)S[C@@H]2[C@H](NC(=O)[C@H](N)c3ccccc3)C(=O)N2[C@H]1C(=O)O", "note": "[Ampicillin]", "values": [{"measurement": "MIC", "setting": "[3]; [11]", "result": 16, "unit": "µg/mL"}, {"measurement": "MIC", "setting": "[3]; [12]", "result": 64, "unit": "µg/mL"}, {"measurement": "MIC", "setting": "[3]; [13]", "result": 32, "unit": "µg/mL"}, {"measurement": "MIC", "setting": "[4]; ATCC 29213", "result": 0.25, "unit": "µg/mL"}]}, {"smiles": "C[C@H]1[C@H](NC(=O)/C(=N\\OC(C)(C)C(=O)O)c2csc(N)n2)C(=O)N1S(=O)(=O)O", "note": "[Aztreonam, aztreonam]", "values": [{"measurement": "MIC against A. fumigatus", "setting": "[5]", "result": "not active"}, {"measurement": "MIC", "setting": "[6]", "result": 64, "unit": "µg/mL"}, {"measurement": "Percent mortality 96 h post infection, A. fumigatus", "setting": "[7]", "result": 30, "unit": "%"}, {"measurement": "Percent mortality 96 h post infection, P. aeruginosa", "setting": "[8]", "result": 20, "unit": "%"}, {"measurement": "Percent mortality 96 h post infection, P. aeruginosa + A. fumigatus", "setting": "[9]", "result": 60, "unit": "%"}, {"measurement": "MIC", "setting": "[2]; P. aeruginosa strain AGR 18", "result": 32, "unit": "µg/mL"}, {"measurement": "MIC", "setting": "[2]; P. aeruginosa strain MR23", "result": 128, "unit": "µg/mL"}]}, {"smiles": "CC(C)(O/N=C(\\C(=O)N[C@@H]1C(=O)N2C(C(=O)[O-])=C(C[n+]3ccccc3)CS[C@H]12)c1csc(N)n1)C(=O)O", "note": "[Ceftazidime]", "values": [{"measurement": "MIC", "setting": "[2]; P. aeruginosa strain AGR 18", "result": 32, "unit": "µg/mL"}, {"measurement": "MIC", "setting": "[2]; P. aeruginosa strain MR23", "result": 32, "unit": "µg/mL"}]}, {"smiles": "N.N.[Cl][Pt][Cl]", "note": "[Cisplatin]", "values": [{"measurement": "Tumor size, 7 days after transplantation", "setting": "[10]; 7 days", "result": 72.4, "unit": "mm^3"}, {"measurement": "Tumor size, 11 days after transplantation", "setting": "[10]; 11 days", "result": 180.7, "unit": "mm^3"}, {"measurement": "Tumor size, 14 days after transplantation", "setting": "[10]; 14 days", "result": 243.3, "unit": "mm^3"}, {"measurement": "Tumor size, 18 days after transplantation", "setting": "[10]; 18 days", "result": 345.8, "unit": "mm^3"}, {"measurement": "Tumor size, 22 days after transplantation", "setting": "[10]; 22 days", "result": 548.2, "unit": "mm^3"}, {"measurement": "Tumor size, 25 days after transplantation", "setting": "[10]; 25 days", "result": 607.7, "unit": "mm^3"}]}, {"smiles": "CCC[C@@H]1C[C@@H](C(=O)N[C@@H]([C@H]2O[C@H](SC)[C@H](O)[C@@H](O)[C@H]2O)[C@H](C)Cl)N(C)C1", "note": "[Clindamycin]", "values": [{"measurement": "MIC", "setting": "[3]; [11]", "result": 2, "unit": "µg/mL"}, {"measurement": "MIC", "setting": "[3]; [12]", "result": 4, "unit": "µg/mL"}, {"measurement": "MIC", "setting": "[3]; [13]", "result": 2, "unit": "µg/mL"}, {"measurement": "MIC", "setting": "[4]; ATCC 29213", "result": 0.125, "unit": "µg/mL"}]}, {"smiles": "C[C@@H](O)[C@H]1C(=O)N2C(C(=O)O)=C(S[C@@H]3CN[C@H](C(=O)N(C)C)C3)[C@H](C)[C@H]12", "note": "[Meropenem]", "values": [{"measurement": "MIC", "setting": "[3]; [11]", "result": 128, "unit": "µg/mL"}, {"measurement": "MIC", "setting": "[3]; [12]", "result": 32, "unit": "µg/mL"}, {"measurement": "MIC", "setting": "[3]; [13]", "result": 128, "unit": "µg/mL"}, {"measurement": "MIC", "setting": "[4]; ATCC 29213", "result": 0.125, "unit": "µg/mL"}]}, {"smiles": "CCN1CCN(C(=O)N[C@@H](C(=O)N[C@@H]2C(=O)N3[C@@H]2SC(C)(C)[C@@H]3C(=O)O)c2ccccc2)C(=O)C1=O", "note": "[Piperacillin]", "values": [{"measurement": "MIC", "setting": "[2]; P. aeruginosa strain AGR 18", "result": "> 256", "unit": "µg/mL"}, {"measurement": "MIC", "setting": "[2]; P. aeruginosa strain MR23", "result": 256, "unit": "µg/mL"}]}, {"smiles": "NC[C@H]1O[C@H](O[C@H]2[C@H](O)[C@@H](O[C@H]3O[C@H](CO)[C@@H](O)[C@H](N)[C@H]3O)[C@H](N)C[C@@H]2N)[C@H](N)C[C@@H]1O", "note": "[Tobramycin, tobramycin]", "values": [{"measurement": "MIC against A. fumigatus", "setting": "[5]", "result": "not active"}, {"measurement": "MIC", "setting": "[6]", "result": "16 to 32", "unit": "µg/mL"}, {"measurement": "Percent mortality 96 h post infection, A. fumigatus", "setting": "[7]", "result": 40, "unit": "%"}, {"measurement": "Percent mortality 96 h post infection, P. aeruginosa", "setting": "[8]", "result": 20, "unit": "%"}, {"measurement": "Percent mortality 96 h post infection, P. aeruginosa + A. fumigatus", "setting": "[9]", "result": 50, "unit": "%"}, {"measurement": "MIC", "setting": "[2]; P. aeruginosa strain AGR 18", "result": 32, "unit": "µg/mL"}, {"measurement": "MIC", "setting": "[2]; P. aeruginosa strain MR23", "result": 32, "unit": "µg/mL"}]}, {"smiles": "C[C@@H](c1ncncc1F)[C@](O)(Cn1cncn1)c1ccc(F)cc1F", "note": "[VRZ]", "values": [{"measurement": "Minimal inhibitory concentration", "setting": "[1]; C. glabrata CG1514053", "result": 8, "unit": "µg/mL"}, {"measurement": "Minimal inhibitory concentration", "setting": "[1]; C. glabrata VT18", "result": 4, "unit": "µg/mL"}]}, {"smiles": "CN[C@H](CC(C)C)C(=O)N[C@H]1C(=O)N[C@@H](CC(N)=O)C(=O)N[C@H]2C(=O)N[C@H]3C(=O)N[C@H](C(=O)N[C@H](C(=O)O)c4cc(O)cc(O)c4-c4cc3ccc4O)[C@H](O)c3ccc(c(Cl)c3)Oc3cc2cc(c3O[C@@H]2O[C@H](CO)[C@@H](O)[C@H](O)[C@H]2O[C@H]2C[C@](C)(N)[C@H](O)[C@H](C)O2)Oc2ccc(cc2Cl)[C@H]1O", "note": "[Vancomycin]", "values": [{"measurement": "MIC", "setting": "[3]; read-out: VRSA strain MIC, VT-A-199", "result": 16, "unit": "µg/mL"}, {"measurement": "MIC", "setting": "[3]; read-out: VRSA strain MIC, VT-V-18", "result": 16, "unit": "µg/mL"}, {"measurement": "MIC", "setting": "[3]; read-out: VRSA strain MIC, VT-V-25", "result": 1, "unit": "µg/mL"}, {"measurement": "MIC", "setting": "[4]", "result": 0.5, "unit": "µg/mL"}]}]}
